Data from patent publication US6924301B1, “Composition for treating or preventing arrhythmia” (Shionogi & Co., Ltd., priority 1999, dated 2005).

Target: T1, cPLA2 (Homo sapiens, UniProt P47712)
T1 sequence (P47712 1-749): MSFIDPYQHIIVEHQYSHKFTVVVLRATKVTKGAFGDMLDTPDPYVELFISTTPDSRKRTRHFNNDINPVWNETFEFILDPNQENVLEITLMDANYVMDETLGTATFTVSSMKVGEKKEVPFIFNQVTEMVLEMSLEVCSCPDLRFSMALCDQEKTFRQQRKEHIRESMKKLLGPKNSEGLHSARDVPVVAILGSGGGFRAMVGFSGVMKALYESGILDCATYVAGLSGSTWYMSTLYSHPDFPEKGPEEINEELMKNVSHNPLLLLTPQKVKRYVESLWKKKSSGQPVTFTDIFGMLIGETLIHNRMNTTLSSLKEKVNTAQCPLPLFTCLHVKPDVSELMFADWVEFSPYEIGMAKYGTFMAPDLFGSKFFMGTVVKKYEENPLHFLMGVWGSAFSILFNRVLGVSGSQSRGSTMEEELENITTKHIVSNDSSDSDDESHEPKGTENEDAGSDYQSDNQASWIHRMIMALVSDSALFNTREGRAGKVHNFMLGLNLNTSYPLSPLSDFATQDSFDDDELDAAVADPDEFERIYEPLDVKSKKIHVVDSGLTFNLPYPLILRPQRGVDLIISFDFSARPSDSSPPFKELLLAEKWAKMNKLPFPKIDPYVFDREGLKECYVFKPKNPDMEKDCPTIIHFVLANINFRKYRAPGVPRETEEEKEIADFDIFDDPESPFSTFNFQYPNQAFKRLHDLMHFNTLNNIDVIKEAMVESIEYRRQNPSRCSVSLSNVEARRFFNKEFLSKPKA
Assay: cPLA2 inhibitory activity
Format: biochemical
Conditions: for IC50: 1-palmitoyl-2-[14C]-arachidonoyl-sn-glycero-3-phosphocholine liposomes, 15 min at 37° C.; for IC60: 0.25 h, Table 10, same assay
Experimental: The compounds of the present invention were tested for the cPLA2 inhibitory activity according to the method disclosed in […]. Roberts, […], and J. E. Putnam, J. Biol. Chem., 1991, 266, 5268-5272 as outlined below. […] The reaction mixture includes 50 mM HEPES buffer (pH 7.5), 1 mM calcium chloride, 150 mM sodium chloride, 0.1 mg/ml bovine serum albumin, and 1.7 mM dithiothreitol. To the reaction mixture was added the compound of the present invention and the substrate solution. The reaction was allowed to start by adding an enzyme and continued for 15 min at 37° C. The fatty acids released by the reaction were extracted by the method described in V. P. Dole, and H. Meinertz, J. Biol. Chem., 1960, 235, 2595-2599 and its radiation activity was measured on a liquid scintillation counter. Control was obtained by conducting the experiment in the same manner except that a compound of the present invention was not added.

IC50 | IC60 | Structure (SMILES)
33 nM |  | CC(C)CN(C(c1ccccc1)c1ccccc1)[C@@H]1C[C@@H](CNC(=O)c2ccc(/C=C3\SC(=O)NC3=O)cc2)N(C(=O)c2ccccc2C(=O)c2ccccc2)C1 [Compound A-1]
14 nM |  | CC(C)CN(C1CC(CNC(=O)c2ccc(C=C3SC(=O)NC3=O)cc2)N(C(=O)c2ccccc2C(=O)c2ccccc2F)C1)C(c1ccccc1)c1ccccc1 (stereo not shown) [Compound A-2]
94 nM |  | CC(C)CN(C1CC(CNC(=O)c2ccc(C=C3SC(=O)NC3=O)cc2)N(C(=O)c2ccccc2C(=O)c2cccc(F)c2)C1)C(c1ccccc1)c1ccccc1 (stereo not shown) [Compound A-3]
7.4 nM |  | CC(C)CN(C1CC(CNC(=O)c2ccc(C=C3SC(=O)NC3=O)cc2)N(C(=O)c2ccccc2C(=O)c2c(F)cccc2F)C1)C(c1ccccc1)c1ccccc1 (stereo not shown) [Compound A-5]
4.5 nM |  | CC(C)CN(C1CC(CNC(=O)c2ccc(C=C3SC(=O)NC3=O)cc2)N(C(=O)c2cccc(F)c2C(=O)c2ccc(F)cc2F)C1)C(c1ccccc1)c1ccccc1 (stereo not shown) [Compound A-6]
5.1 nM |  | CC(C)CN(C1CC(CNC(=O)c2ccc(C=C3SC(=O)NC3=O)cc2)N(C(=O)c2c(F)cccc2C(=O)c2ccc(F)cc2F)C1)C(c1ccccc1)c1ccccc1 (stereo not shown) [Compound A-7]
5 nM |  | CC(C)CN(C1CC(CNC(=O)c2ccc(C=C3SC(=O)NC3=O)cc2)N(C(=O)c2ccc(F)cc2C(=O)c2ccc(F)cc2F)C1)C(c1ccccc1)c1ccccc1 (stereo not shown) [Compound A-8]
2 nM |  | CC(C)CN(C1CC(CNC(=O)c2ccc(C=C3SC(=O)NC3=O)cc2)N(C(=O)c2cc(F)ccc2C(=O)c2ccc(F)cc2F)C1)C(c1ccccc1)c1ccccc1 (stereo not shown) [Compound A-9]
29 nM |  | COc1ccc(C(=O)c2ccc(F)cc2F)c(C(=O)N2CC(N(CC(C)C)C(c3ccccc3)c3ccccc3)CC2CNC(=O)c2ccc(C=C3SC(=O)NC3=O)cc2)c1 (stereo not shown) [Compound A-10]
5.2 nM |  | CC(C)CN(C1CC(CNC(=O)c2ccc(C=C3SC(=O)NC3=O)cc2)N(C(=O)c2cc(Cl)ccc2C(=O)c2ccc(F)cc2F)C1)C(c1ccccc1)c1ccccc1 (stereo not shown) [Compound A-11]
2.1 nM |  | CC(C)CN(C1CC(CNC(=O)c2ccc(C=C3SC(=O)NC3=O)s2)N(C(=O)c2ccccc2C(=O)c2ccc(F)cc2F)C1)C(c1ccccc1)c1ccccc1 (stereo not shown) [Compound A-12]
1.8 nM |  | CC(C)CN(Cc1ccccc1-c1ccccc1)[C@@H]1C[C@@H](CNC(=O)/C=C/c2ccc(/C=C3\SC(=O)NC3=O)cc2)N(C(=O)c2ccccc2C(=O)c2ccc(F)cc2F)C1 [Compound A-14]
3.7 nM |  | O=C(/C=C/c1ccc(/C=C2\SC(=O)NC2=O)cc1)NC[C@@H]1C[C@@H](N(Cc2ccccc2)C(c2ccccc2)c2ccccc2)CN1C(=O)c1ccccc1C(=O)c1ccc(F)cc1F [Compound A-17]
20 nM |  | O=C1NC(=O)C(=Cc2ccc(C(=O)NCC3CC(SCc4c(-c5ccccc5)cccc4-c4ccccc4)CN3C(=O)c3ccccc3C(=O)c3ccc(F)cc3F)cc2)S1 (stereo not shown) [Compound B-2]
9 nM |  | COc1ccc(C(SC2CC(CNC(=O)c3ccc(C=C4SC(=O)NC4=O)cc3)N(C(=O)c3ccccc3C(=O)c3ccc(F)cc3F)C2)(c2ccccc2)c2ccc(OC)cc2)cc1 (stereo not shown) [Compound B-3]
2.6 nM |  | O=C1NC(=O)C(=Cc2ccc(C(=O)NCC3CC(SC(c4ccccc4)(c4cccc(F)c4)c4cccc(F)c4)CN3C(=O)c3ccccc3C(=O)c3ccc(F)cc3F)cc2)S1 (stereo not shown) [Compound B-4]
2.7 nM |  | O=C1NC(=O)C(=Cc2ccc(C(=O)NCC3CC(SC(c4ccccc4)(c4ccccc4)c4cc(F)cc(F)c4)CN3C(=O)c3ccccc3C(=O)c3ccc(F)cc3F)cc2)S1 (stereo not shown) [Compound B-5]
1.3 nM |  | Cc1cc(C)cc(C(SC2CC(CNC(=O)c3ccc(C=C4SC(=O)NC4=O)cc3)N(C(=O)c3ccccc3C(=O)c3ccc(F)cc3F)C2)(c2ccccc2)c2ccccc2)c1 (stereo not shown) [Compound B-6]
 | 1.4 nM | Cc1cccc(C(SC2CC(CNC(=O)c3ccc(C=C4SC(=O)NC4=O)cc3)N(C(=O)c3ccccc3C(=O)c3ccc(F)cc3F)C2)(c2ccccc2)c2cccc(C)c2)c1 (stereo not shown) [Compound B-7]
 | 1.2 nM | O=C1NC(=O)C(Cc2ccc(C(=O)NCC3CC(SC(c4ccccc4)(c4ccccc4)c4ccccc4)CN3C(=O)c3ccccc3C(=O)c3ccc(F)cc3F)cc2)S1 (stereo not shown) [Compound B-8]

IC50 | IC60 | Structure (SMILES)
 | 0.6 nM | O=C(C=Cc1ccc(C=C2SC(=O)NC2=O)cc1)NCC1CC(SC(c2ccccc2)(c2ccccc2)c2ccccc2)CN1C(=O)c1ccccc1C(=O)c1ccc(F)cc1F (stereo not shown) [Compound B-9]
 | 5.6 nM | O=C(C=Cc1ccc(C=C2SC(=O)NC2=O)cc1)NCC1CC(SCc2c(-c3ccccc3)cccc2-c2ccccc2)CN1C(=O)c1ccccc1C(=O)c1ccc(F)cc1F (stereo not shown) [Compound B-10]
 | 1.2 nM | COc1ccc(C(SC2CC(CNC(=O)C=Cc3ccc(C=C4SC(=O)NC4=O)cc3)N(C(=O)c3ccccc3C(=O)c3ccc(F)cc3F)C2)(c2ccccc2)c2ccccc2)cc1 (stereo not shown) [Compound B-11]
 | 2 nM | COc1ccc(C(SC2CC(CNC(=O)C=Cc3ccc(C=C4SC(=O)NC4=O)cc3)N(C(=O)c3ccccc3C(=O)c3ccc(F)cc3F)C2)(c2ccccc2)c2ccc(OC)cc2)cc1 (stereo not shown) [Compound B-12]
 | 2 nM | Cc1ccc(C(SC2CC(CNC(=O)C=Cc3ccc(C=C4SC(=O)NC4=O)cc3)N(C(=O)c3ccccc3C(=O)c3ccc(F)cc3F)C2)(c2ccccc2)c2ccccc2)cc1 (stereo not shown) [Compound B-13]
 | 1.2 nM | O=C(C=Cc1ccc(C=C2SC(=O)NC2=O)cc1)NCC1CC(SC(c2ccc(F)cc2)(c2ccc(F)cc2)c2ccc(F)cc2)CN1C(=O)c1ccccc1C(=O)c1ccc(F)cc1F (stereo not shown) [Compound B-14]
 | 1.2 nM | Cc1ccccc1C(SC1CC(CNC(=O)C=Cc2ccc(C=C3SC(=O)NC3=O)cc2)N(C(=O)c2ccccc2C(=O)c2ccc(F)cc2F)C1)(c1ccccc1)c1ccccc1 (stereo not shown) [Compound B-15]
 | 1 nM | Cc1cccc(C(SC2CC(CNC(=O)C=Cc3ccc(C=C4SC(=O)NC4=O)cc3)N(C(=O)c3ccccc3C(=O)c3ccc(F)cc3F)C2)(c2ccccc2)c2ccccc2)c1 (stereo not shown) [Compound B-16]
 | 0.63 nM | O=C(C=Cc1ccc(C=C2SC(=O)NC2=O)cc1)NCC1CC(SC(c2ccc(Cl)cc2)(c2ccc(Cl)cc2)c2ccc(Cl)cc2)CN1C(=O)c1ccccc1C(=O)c1ccc(F)cc1F (stereo not shown) [Compound B-17]
 | 0.26 nM | CC(C)c1cccc(C(SC2CC(CNC(=O)C=Cc3ccc(C=C4SC(=O)NC4=O)cc3)N(C(=O)c3ccccc3C(=O)c3ccc(F)cc3F)C2)(c2ccccc2)c2ccccc2)c1 (stereo not shown) [Compound B-18]
 | 2.9 nM | O=C(C=Cc1ccc(C=C2SC(=O)NC2=O)cc1)NCC1CC(SC(c2ccccc2)(c2ccccc2)c2cccs2)CN1C(=O)c1ccccc1C(=O)c1ccc(F)cc1F (stereo not shown) [Compound B-19]
 | 1.4 nM | O=C(C=Cc1ccc(CC2SC(=O)NC2=O)cc1)NCC1CC(SC(c2ccccc2)(c2ccccc2)c2ccccc2)CN1C(=O)c1ccccc1C(=O)c1ccc(F)cc1F (stereo not shown) [Compound B-20]
 | 0.27 nM | Cc1cccc(C(SC2CC(CNC(=O)C=Cc3ccc(C=C4SC(=O)NC4=O)cc3)N(C(=O)c3ccccc3C(=O)c3ccc(F)cc3F)C2)(c2ccccc2)c2cccc(C)c2)c1 (stereo not shown) [Compound B-21]
 | 0.37 nM | Cc1cc(C)cc(C(SC2CC(CNC(=O)C=Cc3ccc(C=C4SC(=O)NC4=O)cc3)N(C(=O)c3ccccc3C(=O)c3ccc(F)cc3F)C2)(c2ccccc2)c2ccccc2)c1 (stereo not shown) [Compound B-22]
 | 0.52 nM | O=C(C=Cc1ccc(C=C2SC(=O)NC2=O)cc1)NCC1CC(SC(c2ccccc2)(c2ccccc2)c2ccccc2F)CN1C(=O)c1ccccc1C(=O)c1ccc(F)cc1F (stereo not shown) [Compound B-23]
 | 0.36 nM | O=C(C=Cc1ccc(C=C2SC(=O)NC2=O)cc1)NCC1CC(SC(c2ccccc2)(c2ccccc2)c2cccc(F)c2)CN1C(=O)c1ccccc1C(=O)c1ccc(F)cc1F (stereo not shown) [Compound B-24]
 | 0.43 nM | O=C(C=Cc1ccc(C=C2SC(=O)NC2=O)cc1)NCC1CC(SC(c2ccccc2)(c2ccccc2)c2ccc(F)cc2)CN1C(=O)c1ccccc1C(=O)c1ccc(F)cc1F (stereo not shown) [Compound B-25]
 | 24 nM | O=C1NC(=O)/C(=C/c2ccc(C(=O)NC[C@@H]3C[C@@H](OCc4ccccc4-c4ccccc4)CN3C(=O)c3ccccc3C(=O)c3ccc(F)cc3F)s2)S1 [Compound C-1]
 | 3.8 nM | O=C(/C=C/c1ccc(/C=C2\SC(=O)NC2=O)cc1)NC[C@@H]1C[C@@H](Oc2ccccc2C(c2ccccc2)c2ccccc2)CN1C(=O)c1ccccc1C(=O)c1ccc(F)cc1F [Compound C-2]
 | 5.4 nM | O=C1NC(=O)/C(=C/c2ccc(/C=C/CNC(=O)[C@@H]3C[C@@H](SC(c4ccccc4)(c4ccccc4)c4ccccc4)CN3C(=O)c3ccccc3C(=O)c3ccc(F)cc3F)cc2)S1 [Compound C-3]
